Measurements reported in US20200352889A1, “CYSTATHIONINE COMPOSITIONS AND METHODS OF TREATMENT FOR HEALTH CONDITIONS” (THE REGENTS OF THE UNIVERSITY OF COLORADO, A BODY CORPORATE, priority 2011, published 2020).
“Also recorded” adds a separate entry of the source.

Tests used:
293AD cells = experiment: Tunicamycin-induced cell death, LDH release and phase-contrast, 293AD cells; assay type: cell-based, human
Description: (§1) Cells were seeded in triplicate at ˜75% confluence and pre-treated with either PPG) (5 mM), Cystathionine (1 mM) or with just complete media (DMEM, 10% FBS) as a control. After 24 hr pre-treatment, cells looked normal, with minimal floating cells. Fresh media with 1% FBS was then added to each well, the cells were further treated with Tm (either 5 or 10 ug)/ml. After 18 hr. treatment with Tunicamycin, cells were photographed under phase-contrast with a Zeiss Axiovert 25 microscope for evidence of dead floating cells. Cells from the group treated solely with tunicamycin became strikingly hyper-refringent, detached from the substratum and floated in the media. […] To further evaluate a role for cystathionine in resisting the induction of cell death by tunicamycin, cell lysis was quantified by assaying lactate dehydrogenase (LDH) release. The enzyme activity was determined spectrophotometrically and the amount of enzyme leak was expressed as a percentage of the LDH activity observed in untreated control cells.
HepG2, 293AD and a23 cells were seeded in triplicate at ˜75% confluence and were pre-treated with either propargylglycine (PPG) (5 mM) or cystathionine (5 mM) in complete media (DMEM, 10% FBS). After 24 hours, fresh media with 1% FBS was added to each well. Cells were then further treated with tunicamycin (either 5 or 10 ug/ml) for 18 hr treatment. Cells were subsequently photographed under phase-contrast with a Zeiss Axiovert 25 microscope for evidence of dead floating cells. To quantify cell death the media supernatant was collected for LDH release assay using a kit from Roche Applied Science (Cat.No.11 644 793 001) according to the manufacturer's standard protocol where cytotoxicity (%)=((experimental value-low control/(high control-low control))×100.
as §1, with “24 hr.” for “24 hr”

a23 cells = experiment: Tunicamycin-induced cell death, LDH release, transsulfuration negative a23 cells; assay type: cell-based, Chinese hamster; conditions: CBS and CGL negative, p=0.7301
Text: However, examination of a direct effect of exogenously added cystathionine is not currently possible in a whole animal model because of complications with the compounds solubility and rapid kinetics of its excretion. In order to investigate the direct effects of cystathionine against ER stress-induced cell death, the cytotoxicity of tunicamycin in the human embryonic kidney cell line 293AD and the human hepatoma cell line HepG2 in the presence and absence of both PPG and exogenously added cystathionine was examined. Preliminary experiments confirmed that both of these cell lines express both CBS and CGL (data not shown). In order to investigate the possible protective effects of cystathionine in the absence of transsulfuration, these experiments were repeated with the CBS and CGL negative Chinese hamster fibroblast line a23 (6).
Cells were seeded in triplicate at ˜75% confluence and pre-treated with either PPG) (5 mM), Cystathionine (1 mM) or with just complete media (DMEM, 10% FBS) as a control. […] To further evaluate a role for cystathionine in resisting the induction of cell death by tunicamycin, cell lysis was quantified by assaying lactate dehydrogenase (LDH) release. The enzyme activity was determined spectrophotometrically and the amount of enzyme leak was expressed as a percentage of the LDH activity observed in untreated control cells. […]

Grp78, Grp94, GADD153 = experiment: Northern and Western blotting of UPR induction in 293AD cells; assay type: cell-based, human
Description: To further assess the effect of cystathionine upon induction of the UPR and GADD153 by ER stress Northern and Western blotting experiments were performed.
Immunoblot analysis of total cell lysates was performed as described previously (4,14). Briefly, following incubation with the appropriate primary and horseradish peroxidase-conjugated secondary antibodies (Affinity Biologicals, Ancaster, ON, Canada) membranes were developed using the Renaissance® Western Blot Chemiluminescence Reagent Kit, (Perkin Elmer, Woodbridge, ON, Canada). Proteins were transferred on a nitrocellulose membrane, and probed with anti-KDEL monoclonal antibody, which recognizes Hsp70, GRP78 and GRP94 that was purchased from Stressgen Biotechnologies (SPA-827) or anti GADD153 (Santa Cruz Biotech #SC-7351). Anti-β-Actin monoclonal antibody (Sigma) was used as a loading control.
Total RNA was isolated from 293AD cells using the RNeasy® total RNA kit (Qiagen, Santa Clarita, Calif.) and resuspended in diethylpyrocarbonate (DEPC)-treated water. Quantification and purity of the RNA was assessed by A260/A280 absorption, and RNA samples with ratios greater than 1.6 were stored at […] for further analysis. Total RNA (10 μg/lane) was fractionated on 2.2 mol/L formaldehyde/1.2% agarose gels and transferred overnight onto Zeta-Probe® GT nylon membranes (Bio-Rad, Toronto, Canada) in 10×SSC. The RNA was cross-linked to the membrane using a UV crosslinker (PDI Bioscience, Toronto, Canada) before hybridization. Specific probes were generated by labeling cDNA fragments with [−32P]dCTP (NEN) using a random primed DNA labeling kit (Boehringer Mannheim, Laval, Canada). The cDNA probe for GADD153 (no. AA627477) was obtained from Genome Systems (St Louis, Mo.). The cDNA probe used for GRP78 is a full length cDNA clone that has been described previously (4). After overnight hybridization at 43° C., the membranes were washed as described by the manufacturer, exposed to x-ray film, and subjected to autoradiography.

[1] = system: WT mice treated with thapsagargin; experiment: Thapsagargin-induced acute tubular necrosis in WT mice in the presence and absence of PPG; assay type: in vivo, mouse; conditions: single IP thapsagargin + daily PPG, three days
Text: (§2) Wild type mice (WT; n=6) to a single sub-lethal intraperitoneal injection of thapsagargin in the presence and absence of the CGL inactivating compound propargylglycine (PPG). WT mice were randomly assigned to one of four treatment groups (n=6 for each group): 1). control, IP injected with PBS (See FIG. 13, Panel A); 2). I.P. injection with PPG (See FIG. 13, Panel B); 3). single I.P […] thapsagargin (See FIG. 13, Panel C); and 4). thapsagargin+PPG (See FIG. 13, Panel D). In groups 2 and 4, PPG treatment was maintained by daily injection until sacrifice at three days post vehicle/thapsagargin injection. After the completion of this treatment regime, all mice were anaesthetized (isoflourane/oxygen) and sacrificed by decapitation.
as §2, with “(See” for “(See FIG. 13,”, “After the completion of this treatment regime, all mice were anaesthetized (isoflourane/oxygen) and sacrificed by decapitation.” left out

C#CCC(N)C(=O)O (racemic) [PPG, D,L-2-amino-4-pentynoic acid]
prevention of tunicamycin-induced cell death (LDH release) (293AD cells; 293AD cells, tunicamycin 5 μg/ml 18 hr, 24 hr pre-treatment PPG 5 mM): largely prevented
reduction in cell death (LDH release) (293AD cells; 293AD cells, tunicamycin 10 μg/ml 18 hr, 24 hr pre-treatment PPG 5 mM or cystathionine 1 mM, p<0.0001): 11 fold
floating dead cells (phase-contrast) (293AD cells; tunicamycin 18 hr after PPG or cystathionine pre-treatment): No floating dead cells were observed; also recorded: not evident
cytoprotection against tunicamycin induced cell death (a23 cells): no significant cytoprotection
expression of Grp78, Grp94 and GADD15 in control cells (Grp78, Grp94, GADD153; PPG 5 mM or cystathionine 5 mM, no tunicamycin): Neither PPG nor exogenously added cystathionine induced expression
scale of induction of Grp78, Grp94 and GADD153 in the presence of tunicamycin (Grp78, Grp94, GADD153; tunicamycin 5 and 10 μg/ml): Nor did either of these treatments significantly alter the scale of induction
thapsagargin-induced renal morphological changes (acute tubular necrosis, histology) [1]: completely ablated
